# Counter-ions that a name gives are not always drawn.
# Biological target: T1, Angiotensin converting enzyme (ACE) (Cavia porcellus, UniProt H0UWL7)
# T1 construct: ACE from guinea pig serum and the test compounds are preincubated for 10 minutes; from tissue; host or cells: guinea pig serum
# T1 sequence (H0UWL7 33-1302): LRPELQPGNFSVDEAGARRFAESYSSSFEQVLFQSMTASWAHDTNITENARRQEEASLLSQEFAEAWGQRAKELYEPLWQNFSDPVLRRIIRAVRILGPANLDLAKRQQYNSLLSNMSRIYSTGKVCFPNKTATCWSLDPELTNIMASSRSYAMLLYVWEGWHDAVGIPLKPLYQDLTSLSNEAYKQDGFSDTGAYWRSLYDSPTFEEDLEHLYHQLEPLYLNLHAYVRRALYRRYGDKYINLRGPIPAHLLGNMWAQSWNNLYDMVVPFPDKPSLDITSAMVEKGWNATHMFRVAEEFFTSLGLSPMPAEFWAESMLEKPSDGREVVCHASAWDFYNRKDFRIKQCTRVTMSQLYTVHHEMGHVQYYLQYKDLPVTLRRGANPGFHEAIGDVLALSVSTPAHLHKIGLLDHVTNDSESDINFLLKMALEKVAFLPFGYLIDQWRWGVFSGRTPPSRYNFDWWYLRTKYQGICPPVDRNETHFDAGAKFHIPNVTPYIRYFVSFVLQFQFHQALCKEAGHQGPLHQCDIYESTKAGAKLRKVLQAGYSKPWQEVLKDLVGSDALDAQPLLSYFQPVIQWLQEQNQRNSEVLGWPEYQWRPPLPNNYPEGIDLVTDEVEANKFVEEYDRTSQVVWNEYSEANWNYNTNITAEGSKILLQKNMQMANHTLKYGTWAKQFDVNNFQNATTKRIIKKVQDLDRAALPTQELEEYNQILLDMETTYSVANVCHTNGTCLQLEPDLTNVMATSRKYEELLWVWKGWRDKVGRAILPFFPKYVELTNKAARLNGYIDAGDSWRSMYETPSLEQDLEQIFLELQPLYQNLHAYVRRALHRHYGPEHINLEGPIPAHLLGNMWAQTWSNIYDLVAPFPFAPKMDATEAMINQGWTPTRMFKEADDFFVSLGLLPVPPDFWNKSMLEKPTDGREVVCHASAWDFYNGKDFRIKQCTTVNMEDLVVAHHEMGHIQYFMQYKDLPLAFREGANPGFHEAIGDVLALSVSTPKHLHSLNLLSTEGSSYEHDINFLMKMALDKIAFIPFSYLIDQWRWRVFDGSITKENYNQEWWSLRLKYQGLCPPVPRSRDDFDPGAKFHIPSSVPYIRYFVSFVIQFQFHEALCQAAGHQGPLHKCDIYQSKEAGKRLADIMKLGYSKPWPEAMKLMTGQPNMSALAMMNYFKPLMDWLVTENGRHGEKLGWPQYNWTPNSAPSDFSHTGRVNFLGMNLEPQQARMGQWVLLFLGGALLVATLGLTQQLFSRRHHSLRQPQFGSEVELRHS
# Assay: In vitro ACE Assay: angiotensin converting enzyme inhibitory activity (guinea pig serum ACE, 3H-hippuryl-glycyl-glycine substrate)
# Format: biochemical
# Conditions: 10 min preincubation, 60 minute incubation at 37° C., read-out: IC50 (Activity of Compounds of Formula V)
# Protocol: In vitro ACE Assay: Angiotensin converting enzyme (ACE) inhibitory activity is determined by assaying guinea pig serum ACE in the presence and absence of the test compound. ACE from guinea pig serum and the test compounds are preincubated for 10 minutes before the addition of the labelled substrate ^3 H-hippuryl-glycyl-glycine. […] ACE cleaves the hippuryl-glycyl bond to form the dipeptide glycyl-glycine and ^3 H-hippuric acid. The ^3 H-hippuric acid is then extracted with ethyl acetate and the ACE inhibition of a given sample calculated on the basis of the ^3 H-hippuric acid generated.
row,Compound,IC50 [nM]
1,"CCOC(=O)[C@@H]1C[C@@H]2CCCC[C@@H]2N1C(=O)C(C)CSC(C)=O (relative stereo) [V: R=C2 H5, R1=CH3, R2=CH3 CO, --, Ethyl (2α,3aβ,7aβ)-Octahydro-1-[3-(acetylthio)-2-methylpropanoyl]-1H-indole-2-carboxylate]",6700
2,"CC(CS)C(=O)N1[C@H](C(=O)O)C[C@@H]2CCCC[C@@H]21 (relative stereo) [V: R=H, R1=CH3, R2=H, --, (2α,3aβ,7aβ)-Octahydro-1-(3-mercapto-2-methylpropanoyl)-1H-indole-2-carboxylic acid]",16
3,"CC(=O)SCCC(=O)N1[C@H](C(=O)O)C[C@@H]2CCCC[C@@H]21 (relative stereo) [V: R=H, R1=H, R2=CH3 CO, l, (1)-(2α,3aβ,7aβ)-Octahydro-1-[3-(acetylthio)-propanoyl]-1H-indole-2-carboxylic Acid]",480
4,"O=C(O)[C@@H]1C[C@@H]2CCCC[C@@H]2N1C(=O)CCS (relative stereo) [V: R=H, R1=H, R2=H, l, (1)-(2α,3aβ,7aβ)-Octahydro-1-(3-mercaptopropanoyl)-1H-indole-2-carboxylic Acid]",6.4
5,"CC(CSC(=O)C(C)(C)C)C(=O)N1[C@H](C(=O)O)C[C@@H]2CCCC[C@@H]21 (single isomer, unassigned) [V: R=H, R1=CH3, R2=(CH3)3 CCO, dl, A, (2α,3aβ,7aβ)-Octahydro-1-[3-(2,2-dimethylpropanoylthio)-2-methylpropanoyl]-1H-indole-2-carboxylic Acid]",170
6,"CCC(=O)SCC(C)C(=O)N1[C@H](C(=O)O)C[C@@H]2CCCC[C@@H]21 (single isomer, unassigned; diastereomer a) [V: R=H, R1=CH3, R2=CH3 CH2 CO, dl, A, (2α,3aβ,7aβ)-Octahydro-1-[3-(propanoylthio)-2-methylpropanoyl]-1H-indole-2-carboxylic Acid, (Diastereomer A)]",52
7,"CC(=O)SCC(C)C(=O)N1[C@H](C(=O)O)C[C@@H]2CCCC[C@@H]21 (single isomer, unassigned; diastereomer a) [V: R=H, R1=CH3, R2=CH3 CO, A, (2α,3aβ,7aβ)-Octahydro-1-[3-(acetylthio)-2-methyl-propanoyl]-1H-indole-2-carboxylic Acid, Diastereomer A]",160
8,"CC(CS)C(=O)N1[C@H](C(=O)O)C[C@@H]2CCCC[C@@H]21 (single isomer, unassigned; diastereomer a) [V: R=H, R1=CH3, R2=H, dl, A, (2α,3aβ,7aβ)-Octahydro-1-(3-mercapto-2-methylpropanoyl)-1H-indole-2-carboxylic Acid, Diastereomer A]",7
9,"CC(CSC(=O)c1ccccc1)C(=O)N1[C@H](C(=O)O)C[C@@H]2CCCC[C@@H]21 (single isomer, unassigned; diastereomer a) [V: R=H, R1=CH3, R2=PhCO, dl, A, (2α,3aβ,7aβ)-Octahydro-1-[3-(benzoylthio)-2-methylpropaoyl]-1H-indole-2-carboxylic Acid (Diastereomer A) t-Butylamine Salt]",960
10,"CC(=O)SCC(C)C(=O)N1[C@H](C(=O)O)C[C@@H]2CCCC[C@@H]21 (single isomer, unassigned; diastereomer b) [V: R=H, R1=CH3, R2=CH3 CO, dl, B, (2α,3aβ,7aβ)-Octahydro-1-[3-(acetylthio)-2-methylpropanoyl]-1H-indole-2-carboxylic Acid, Diastereomer B.]",1100

# Source: patent publication US4425355A, “Substituted acyl derivatives of chair form of octahydro-1H-indole-2-carboxylic acids” (Warner-Lambert Company, priority 1981, dated 1984)
